Laboratory results published in PubChem BioAssay (NCI).
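Briefly, cells in 96-well plates were exposed to five compound concentrations for 48 h, and endpoints were estimated by linear interpolation. Definition used: TGI = concentration required for complete inhibition of growth.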

Columns and labels:
Assay in all cases: NCI tumour cell line growth inhibition, 48 h
SNB-19 CNS = system: SNB-19 CNS
SF-295 CNS = system: SF-295 CNS
HCT-15 colon = system: HCT-15 colon
HOP-62 NSCLC = system: HOP-62 NSCLC
HL-60(TB) leukemia = system: HL-60(TB) leukemia
SF-268 CNS = system: SF-268 CNS
M19-MEL melanoma = system: M19-MEL melanoma
SNB-75 CNS = system: SNB-75 CNS
NCI-H23 lung = system: NCI-H23 lung
U251 CNS = system: U251 CNS
RXF-631 renal = system: RXF-631 renal
M14 melanoma = system: M14 melanoma
HT29 colon = system: HT29 colon
IGROV1 ovarian = system: IGROV1 ovarian
OVCAR-4 ovarian = system: OVCAR-4 ovarian
SR leukemia = system: SR leukemia
LOX IMVI melanoma = system: LOX IMVI melanoma
A498 renal = system: A498 renal
TK-10 renal = system: TK-10 renal
XF 498 CNS = system: XF 498 CNS
NCI-H460 lung = system: NCI-H460 lung
SK-OV-3 ovarian = system: SK-OV-3 ovarian
NCI-H522 lung = system: NCI-H522 lung
SK-MEL-5 melanoma = system: SK-MEL-5 melanoma
RPMI-8226 leukemia = system: RPMI-8226 leukemia
SF-539 CNS = system: SF-539 CNS
CAKI-1 renal = system: CAKI-1 renal
UO-31 renal = system: UO-31 renal
SNB-78 CNS = system: SNB-78 CNS
SN12C renal = system: SN12C renal
HCT-116 colon = system: HCT-116 colon
ACHN renal = system: ACHN renal
HCC-2998 colon = system: HCC-2998 colon
DMS 114 small cell lung = system: DMS 114 small cell lung
SW-620 colon = system: SW-620 colon
MOLT-4 leukemia = system: MOLT-4 leukemia
LXFL 529 NSCLC = system: LXFL 529 NSCLC
OVCAR-5 ovarian = system: OVCAR-5 ovarian
RXF 393 renal = system: RXF 393 renal
DLD-1 colon = system: DLD-1 colon
KM20L2 colon = system: KM20L2 colon
CCRF-CEM leukemia = system: CCRF-CEM leukemia
A549 NSCLC = system: A549 NSCLC
K-562 leukemia = system: K-562 leukemia
EKVX NSCLC = system: EKVX NSCLC
OVCAR-3 ovarian = system: OVCAR-3 ovarian
SK-MEL-2 melanoma = system: SK-MEL-2 melanoma
UACC-62 melanoma = system: UACC-62 melanoma
DMS 273 small cell lung = system: DMS 273 small cell lung
UACC-257 melanoma = system: UACC-257 melanoma
OVCAR-8 ovarian = system: OVCAR-8 ovarian
MALME-3M melanoma = system: MALME-3M melanoma
NCI-H226 lung = system: NCI-H226 lung
HOP-18 NSCLC = system: HOP-18 NSCLC
KM12 colon = system: KM12 colon
786-0 renal = system: 786-0 renal
HOP-92 NSCLC = system: HOP-92 NSCLC
COLO 205 colon = system: COLO 205 colon
SK-MEL-28 melanoma = system: SK-MEL-28 melanoma

Work on `COc1ccc(C(=O)Cc2ccc(Cl)cc2)cc1OC` yielded a TGI (SNB-19 CNS) of over 100 µM, a TGI (SF-295 CNS) of over 100 µM and a TGI (HCT-15 colon) of over 100 µM. It also gave a TGI (HOP-62 NSCLC) of over 100 µM, a TGI (HL-60(TB) leukemia) of over 100 µM and a TGI (SF-268 CNS) of over 100 µM. For the same compound, the TGI (M19-MEL melanoma) was over 100 µM, the TGI (SNB-75 CNS) was 86.9 µM and the TGI (NCI-H23 lung) was over 100 µM. It also gave a TGI (U251 CNS) of over 100 µM, a TGI (RXF-631 renal) of over 100 µM and a TGI (M14 melanoma) of over 100 µM. For the same compound, the TGI (HT29 colon) was over 100 µM, the TGI (IGROV1 ovarian) was over 100 µM and the TGI (OVCAR-4 ovarian) was over 100 µM. For the same compound, the TGI (SR leukemia) was over 100 µM, the TGI (LOX IMVI melanoma) was over 100 µM and the TGI (A498 renal) was over 100 µM. For the same compound, the TGI (TK-10 renal) was over 100 µM, the TGI (XF 498 CNS) was over 100 µM and the TGI (NCI-H460 lung) was over 100 µM. For the same compound, the TGI (SK-OV-3 ovarian) was over 100 µM, the TGI (NCI-H522 lung) was over 100 µM and the TGI (SK-MEL-5 melanoma) was over 100 µM. For the same compound, the TGI (RPMI-8226 leukemia) was over 100 µM, the TGI (SF-539 CNS) was over 100 µM and the TGI (CAKI-1 renal) was over 100 µM. The TGI (UO-31 renal) was over 100 µM, the TGI (SNB-78 CNS) was over 100 µM and the TGI (SN12C renal) was over 100 µM. For the same compound, the TGI (HCT-116 colon) was over 100 µM, the TGI (ACHN renal) was over 100 µM and the TGI (HCC-2998 colon) was over 100 µM. For the same compound, the TGI (DMS 114 small cell lung) was over 100 µM, the TGI (SW-620 colon) was over 100 µM and the TGI (MOLT-4 leukemia) was over 100 µM. It also gave a TGI (LXFL 529 NSCLC) of over 100 µM, a TGI (OVCAR-5 ovarian) of over 100 µM and a TGI (RXF 393 renal) of over 100 µM. It also gave a TGI (DLD-1 colon) of over 100 µM, a TGI (KM20L2 colon) of over 100 µM and a TGI (CCRF-CEM leukemia) of over 100 µM. The TGI (A549 NSCLC) was over 100 µM, the TGI (K-562 leukemia) was over 100 µM and the TGI (EKVX NSCLC) was over 100 µM. For the same compound, the TGI (OVCAR-3 ovarian) was over 100 µM, the TGI (SK-MEL-2 melanoma) was over 100 µM and the TGI (UACC-62 melanoma) was over 100 µM. For the same compound, the TGI (DMS 273 small cell lung) was over 100 µM, the TGI (UACC-257 melanoma) was over 100 µM and the TGI (OVCAR-8 ovarian) was over 100 µM. For the same compound, the TGI (MALME-3M melanoma) was over 100 µM, the TGI (NCI-H226 lung) was over 100 µM and the TGI (HOP-18 NSCLC) was over 100 µM.

For `Nc1ccc(N)c2c1C(=O)c1ccccc1C2=O`, the TGI (SNB-19 CNS) was over 100 µM, the TGI (HCT-15 colon) was over 100 µM and the TGI (HOP-62 NSCLC) was over 100 µM. For the same compound, the TGI (KM12 colon) was over 100 µM, the TGI (SF-268 CNS) was over 100 µM and the TGI (786-0 renal) was over 100 µM. The TGI (M19-MEL melanoma) was over 100 µM, the TGI (SNB-75 CNS) was over 100 µM and the TGI (NCI-H23 lung) was over 100 µM. It also gave a TGI (U251 CNS) of over 100 µM, a TGI (RXF-631 renal) of over 100 µM and a TGI (M14 melanoma) of over 100 µM. It also gave a TGI (HT29 colon) of over 100 µM, a TGI (IGROV1 ovarian) of over 100 µM and a TGI (OVCAR-4 ovarian) of over 100 µM. It also gave a TGI (HOP-92 NSCLC) of over 100 µM, a TGI (LOX IMVI melanoma) of over 100 µM and a TGI (COLO 205 colon) of over 100 µM. It also gave a TGI (A498 renal) of over 100 µM, a TGI (TK-10 renal) of 94 µM and a TGI (XF 498 CNS) of over 100 µM. For the same compound, the TGI (NCI-H460 lung) was over 100 µM, the TGI (SK-OV-3 ovarian) was over 100 µM and the TGI (SK-MEL-28 melanoma) was over 100 µM. The TGI (NCI-H522 lung) was over 100 µM, the TGI (SK-MEL-5 melanoma) was over 100 µM and the TGI (RPMI-8226 leukemia) was over 100 µM. It also gave a TGI (SF-539 CNS) of over 100 µM, a TGI (CAKI-1 renal) of over 100 µM and a TGI (UO-31 renal) of over 100 µM. It also gave a TGI (SNB-78 CNS) of over 100 µM, a TGI (SN12C renal) of over 100 µM and a TGI (HCT-116 colon) of over 100 µM. It also gave a TGI (ACHN renal) of over 100 µM, a TGI (HCC-2998 colon) of 72.9 µM and a TGI (DMS 114 small cell lung) of over 100 µM. The TGI (SW-620 colon) was over 100 µM, the TGI (MOLT-4 leukemia) was over 100 µM and the TGI (LXFL 529 NSCLC) was over 100 µM. It also gave a TGI (OVCAR-5 ovarian) of over 100 µM, a TGI (DLD-1 colon) of over 100 µM and a TGI (KM20L2 colon) of over 100 µM. For the same compound, the TGI (CCRF-CEM leukemia) was over 100 µM, the TGI (A549 NSCLC) was over 100 µM and the TGI (K-562 leukemia) was over 100 µM. For the same compound, the TGI (EKVX NSCLC) was over 100 µM, the TGI (OVCAR-3 ovarian) was over 100 µM and the TGI (SK-MEL-2 melanoma) was over 100 µM. For the same compound, the TGI (UACC-62 melanoma) was over 100 µM, the TGI (DMS 273 small cell lung) was over 100 µM and the TGI (UACC-257 melanoma) was over 100 µM. The TGI (OVCAR-8 ovarian) was over 100 µM, the TGI (MALME-3M melanoma) was over 100 µM and the TGI (NCI-H226 lung) was over 100 µM. The TGI (HOP-18 NSCLC) was over 100 µM.

`C[Si](C)(C)/N=C1\N2C(=NC1(C(F)(F)F)C(F)(F)F)Sc1ccccc12` showed a TGI (SNB-19 CNS) of over 50 µM, a TGI (SF-295 CNS) of over 50 µM and a TGI (HCT-15 colon) of over 50 µM. It also gave a TGI (HOP-62 NSCLC) of over 50 µM, a TGI (KM12 colon) of over 50 µM and a TGI (HL-60(TB) leukemia) of over 50 µM. The TGI (SF-268 CNS) was over 50 µM, the TGI (786-0 renal) was over 50 µM and the TGI (M19-MEL melanoma) was over 50 µM. For the same compound, the TGI (SNB-75 CNS) was over 50 µM, the TGI (NCI-H23 lung) was over 50 µM and the TGI (U251 CNS) was over 50 µM. It also gave a TGI (RXF-631 renal) of over 50 µM, a TGI (M14 melanoma) of over 50 µM and a TGI (HT29 colon) of over 50 µM. For the same compound, the TGI (IGROV1 ovarian) was over 50 µM, the TGI (OVCAR-4 ovarian) was over 50 µM and the TGI (HOP-92 NSCLC) was over 50 µM. The TGI (SR leukemia) was over 50 µM, the TGI (LOX IMVI melanoma) was over 50 µM and the TGI (COLO 205 colon) was over 50 µM. The TGI (A498 renal) was over 50 µM, the TGI (TK-10 renal) was over 50 µM and the TGI (XF 498 CNS) was over 50 µM. It also gave a TGI (NCI-H460 lung) of over 50 µM, a TGI (SK-OV-3 ovarian) of over 50 µM and a TGI (NCI-H522 lung) of over 50 µM. It also gave a TGI (SK-MEL-5 melanoma) of over 50 µM, a TGI (RPMI-8226 leukemia) of over 50 µM and a TGI (SF-539 CNS) of over 50 µM. It also gave a TGI (CAKI-1 renal) of over 50 µM, a TGI (UO-31 renal) of over 50 µM and a TGI (SNB-78 CNS) of over 50 µM. The TGI (SN12C renal) was over 50 µM, the TGI (HCT-116 colon) was over 50 µM and the TGI (ACHN renal) was over 50 µM. The TGI (HCC-2998 colon) was over 50 µM, the TGI (DMS 114 small cell lung) was over 50 µM and the TGI (SW-620 colon) was over 50 µM. The TGI (MOLT-4 leukemia) was over 50 µM, the TGI (LXFL 529 NSCLC) was over 50 µM and the TGI (OVCAR-5 ovarian) was over 50 µM. The TGI (RXF 393 renal) was over 50 µM, the TGI (DLD-1 colon) was over 50 µM and the TGI (KM20L2 colon) was over 50 µM. The TGI (CCRF-CEM leukemia) was over 50 µM, the TGI (A549 NSCLC) was over 50 µM and the TGI (K-562 leukemia) was over 50 µM. It also gave a TGI (EKVX NSCLC) of over 50 µM, a TGI (OVCAR-3 ovarian) of over 50 µM and a TGI (SK-MEL-2 melanoma) of over 50 µM. For the same compound, the TGI (UACC-62 melanoma) was over 50 µM, the TGI (DMS 273 small cell lung) was over 50 µM and the TGI (UACC-257 melanoma) was over 50 µM. It also gave a TGI (OVCAR-8 ovarian) of over 50 µM, a TGI (MALME-3M melanoma) of over 50 µM and a TGI (NCI-H226 lung) of over 50 µM. It also gave a TGI (HOP-18 NSCLC) of over 50 µM.
